Columns and labels:
Bulk stability (1 week) = assay type: physicochemical; settings: listed as I-4 Form A; for Bulk (HPLC) chiral purity / Bulk (HPLC) purity / Bulk (XRPD): Solid state
Procedure: Bulk stability of I-1 Form A and the 2 salt candidates was investigated at 25° C./92% RH in an open container, at 40° C./75% RH in an open container and at 60° C. in a tight container over 1 week. […] All the 3 salts show no obvious racemization based on chiral purity results.
I-1 Form A and the 2 salts were placed at 25° C./92% RH in an open container, at 40° C./75% RH in an open container and at 60° C. in a closed container for I week. Samples after I week were characterized by XRPD and HPLC and inspected for color change.

Hygroscopicity by DVS = assay type: physicochemical
Procedure: • Method 1 (for I-1 Form A and I-3 Form A) • Instrument Intrinsic, Advantage or Adventure • Total gas flow 200 sccm • Oven temperature 25° C. • Solvent Water • Method Cycle: 40-0-95-0-40% RH • Stage Step: 10% • Equilibrium: 0.002 dm/dt (%/min) • Minimum dm/dt stability duration: 60 min • Maximum dm/dt stage time: 360 min • Method 2 (for I-4 Form A) • Instrument Intrinsic, Advantage or Adventure • Total gas flow 200 sccm • Oven temperature 25° C. • Solvent Water • Method Cycle: 40-95-0-95-40% RH • Stage Step: 10% • Equilibrium: 0.002 dm/dt (%/min) • Minimum dm/dt stability duration: 60 min • Maximum dm/dt stage time: 360 min
I-1 Form A is hygroscopic. It absorbs about 5.5% water by weight from 40% RH to 95% RH. […] It absorbs about 40% water by weight from 40% RH to 95% RH. Form changed after the DVS test. […] It starts to absorb water when RH>40% and potential hydrate form generates at high humidity based on DVS data. The sorption and desorption are reversible.
Water sorption and desorption behavior of I-1 Form A, I-3 Form A, and I-4 Form A was investigated by DVS at 25° C. with a cycle of 40-0-95-0-40% RH, dm/dt 0.002, min. equilibration time 60 min and max. equilibration time 360 min. XRPD was measured after the DVS test to determine form change.

[1] = 25° C./92% RH, open container, 1 week
[2] = 40° C./75% RH, open container, 1 week
[3] = 60° C., tight container, 1 week
[4] = DVS 25° C., 0% RH, listed as I-4 Form A
[5] = DVS 25° C., 10% RH, listed as I-4 Form A
[6] = DVS 25° C., 20% RH, listed as I-4 Form A
[7] = DVS 25° C., 30% RH, listed as I-4 Form A
[8] = DVS 25° C., 40% RH, listed as I-4 Form A
[9] = DVS 25° C., 50% RH, listed as I-4 Form A
[10] = DVS 25° C., 60% RH, listed as I-4 Form A
[11] = DVS 25° C., 70% RH, listed as I-4 Form A
[12] = DVS 25° C., 80% RH, listed as I-4 Form A
[13] = DVS 25° C., 90% RH, listed as I-4 Form A
[14] = DVS 25° C., 95% RH, listed as I-4 Form A

For `N#Cc1c(-c2cc(NC(=O)c3cc(F)cc(C(F)(F)F)c3)c3c(c2)C(=O)N[C@H]3c2cc(F)ccc2Cl)ccc2ncnn12` [Compound I-4], the “bulk stability (chemical and physical)” value (Bulk stability (1 week); 25° C./92% RH open, 40° C./75% RH open, 60° C. tight container, 1 week) was “chemically stable but physically unstable at 25° C./92% RH and 40° C./75% RH”, the “Bulk (HPLC) chiral purity” value (Bulk stability (1 week); [1]) was 98.3% and the “Bulk (HPLC) purity” value (Bulk stability (1 week); [1]) was 99.4%/. For the same molecule, the “Bulk (XRPD)” value (Bulk stability (1 week); [1]) was “Form changed”, the “Bulk (HPLC) chiral purity” value (Bulk stability (1 week); [2]) was 99.1% and the “Bulk (HPLC) purity” value (Bulk stability (1 week); [2]) was 99.0%/. For the same molecule, the “Bulk (XRPD)” value (Bulk stability (1 week); [2]) was “Form changed”, the “Bulk (HPLC) chiral purity” value (Bulk stability (1 week); [3]) was 99.2% and the “Bulk (HPLC) purity” value (Bulk stability (1 week); [3]) was 99.5%/. The “Chiral purity (initial)” value (Bulk stability (1 week); before storage) was 99.5%, the “Initial purity by HPLC” value (Bulk stability (1 week); before storage) was 99.6% and the “1st Desorp. (%)” value (Hygroscopicity by DVS; [4]) was 0.01%. For the same molecule, the “2nd Sorp. (%)” value (Hygroscopicity by DVS; [4]) was 0.01%, the “1st Desorp. (%)” value (Hygroscopicity by DVS; [5]) was 1.52% and the “2nd Sorp. (%)” value (Hygroscopicity by DVS; [5]) was 0.98%. The “1st Desorp. (%)” value (Hygroscopicity by DVS; [6]) was 2.78%, the “2nd Sorp. (%)” value (Hygroscopicity by DVS; [6]) was 1.76% and the “1st Desorp. (%)” value (Hygroscopicity by DVS; [7]) was 3.61%. The “2nd Sorp. (%)” value (Hygroscopicity by DVS; [7]) was 2.64%, the “1st Desorp. (%)” value (Hygroscopicity by DVS; [8]) was 4.52% and the “1st Sorp. (%)” value (Hygroscopicity by DVS; [8]) was 1.62%. The “2nd Desorp. (%)” value (Hygroscopicity by DVS; [8]) was 4.51%, the “2nd Sorp. (%)” value (Hygroscopicity by DVS; [8]) was 3.57% and the “1st Desorp. (%)” value (Hygroscopicity by DVS; DVS 25° C., 50% RH) was 5.78%. The “2nd Sorp. (%)” value (Hygroscopicity by DVS; DVS 25° C., 50% RH) was 4.63%, the “1st Sorp. (%)” value (Hygroscopicity by DVS; [9]) was 3.50% and the “2nd Desorp. (%)” value (Hygroscopicity by DVS; [9]) was 5.71%. The “1st Desorp. (%)” value (Hygroscopicity by DVS; DVS 25° C., 60% RH) was 7.60%, the “2nd Sorp. (%)” value (Hygroscopicity by DVS; DVS 25° C., 60% RH) was 6.22% and the “1st Sorp. (%)” value (Hygroscopicity by DVS; [10]) was 4.75%. The “2nd Desorp. (%)” value (Hygroscopicity by DVS; [10]) was 7.44%, the “1st Desorp. (%)” value (Hygroscopicity by DVS; DVS 25° C., 70% RH) was 11.14% and the “2nd Sorp. (%)” value (Hygroscopicity by DVS; DVS 25° C., 70% RH) was 9.34%. The “1st Sorp. (%)” value (Hygroscopicity by DVS; [11]) was 6.87%, the “2nd Desorp. (%)” value (Hygroscopicity by DVS; [11]) was 10.54% and the “1st Desorp. (%)” value (Hygroscopicity by DVS; DVS 25° C., 80% RH) was 16.84%. The “2nd Sorp. (%)” value (Hygroscopicity by DVS; DVS 25° C., 80% RH) was 15.03%, the “1st Sorp. (%)” value (Hygroscopicity by DVS; [12]) was 12.16% and the “2nd Desorp. (%)” value (Hygroscopicity by DVS; [12]) was 17.11%. For the same molecule, the “1st Desorp. (%)” value (Hygroscopicity by DVS; DVS 25° C., 90% RH) was 31.04%, the “2nd Sorp. (%)” value (Hygroscopicity by DVS; DVS 25° C., 90% RH) was 27.39% and the “1st Sorp. (%)” value (Hygroscopicity by DVS; [13]) was 25.12%. The “2nd Desorp. (%)” value (Hygroscopicity by DVS; [13]) was 32.94%, the “1st Desorp. (%)” value (Hygroscopicity by DVS; DVS 25° C., 95% RH) was 42.35% and the “2nd Sorp. (%)” value (Hygroscopicity by DVS; DVS 25° C., 95% RH) was 44.74%. The “1st Sorp. (%)” value (Hygroscopicity by DVS; [14]) was 42.35%, the “2nd Desorp. (%)” value (Hygroscopicity by DVS; [14]) was 44.74% and the “XRPD after DVS test” value (Hygroscopicity by DVS; DVS 25° C., cycle 40-0-95-0-40% RH, listed as I-4 Form A) was “Form changed”. The hygroscopicity (Hygroscopicity by DVS; DVS at 25° C., listed as I-4 Form A) was “very hygroscopic”, the water absorbed (Hygroscopicity by DVS; from 40% RH to 95% RH, 25° C., listed as I-4 Form A) was “about 40 % water by weight” and the “form after the DVS test (XRPD)” value (Hygroscopicity by DVS; listed as I-4 Form A) was “Form changed”.

Source: patent US20260125374A1, “PI3K-ALPHA INHIBITORS AND METHODS OF MAKING AND USING THE SAME” (Relay Therapeutics, Inc., priority 2021, published 2026)
